{"source": "patent US8183213B2", "about": "“Combination therapy comprising glucose reabsorption inhibitors and retinoid-X receptor modulators” (Ortho McNeil Pharmaceutical, Inc., priority 2001, dated 2012)", "key": {"db/db mice [1]": {"tested_on": "db/db mice", "test": "Fed plasma triglycerides after oral dosing of MX-6054 +/- T-1095 (Example 5)", "format": "in vivo", "settings": "± SEM", "description": "(§1) To examine the effect of T-1095 in combination with a RXR agonist, male db/db mice (7 weeks of age/Jackson Labs, ME) were treated daily for 11 days with vehicle (0.5% methylcellulose), an RXR agonist such as MX-6054 (0.1 mg/kg-10 mg/kg), T-1095 (100 mg/kg), or MX-6054 plus T-1095. Mice (n=8 animals/group) received the test compounds or vehicle by oral gavage in a volume of 10 ml/kg of body weight. Body weight was recorded on day 1, prior to dosing, and days 4, 8 and 11. Two hours after the final dose (day 11), mice were weighed and anesthetized with CO2/O2 (70:30). Mice were then bled by retro-orbital sinus puncture into 2 mL heparinized polypropylene tubes on ice. Livers were excised, weighed and frozen.\n(§2) Plasma samples were then assayed for glucose and triglycerides using Trinder reagent (Sigma Diagnostics) and GPO-Trinder (Sigma Diagnostics)."}, "db/db mice [2]": {"tested_on": "db/db mice", "test": "Fed plasma glucose after oral dosing of MX-6054 +/- T-1095 (Example 5)", "format": "in vivo", "settings": "± SEM", "description": "as §1, §2"}, "[3]": {"test": "Body weight after oral dosing of MX-6054 +/- T-1095 (Example 5)", "format": "in vivo", "settings": "oral dosing (title: 35 day), db/db mice", "description": "To examine the effect of T-1095 in combination with a RXR agonist, male db/db mice (7 weeks of age/Jackson Labs, […]), an RXR agonist such as MX-6054 (0.1 mg/kg-10 mg/kg), T-1095 (100 mg/kg), or MX-6054 plus T-1095. Mice (n=8 animals/group) received the test compounds or vehicle by oral gavage in a volume of 10 ml/kg of body weight. […] […] Mice were then bled by retro-orbital sinus puncture into 2 mL heparinized polypropylene tubes on ice. Livers were excised, weighed and frozen."}, "[4]": {"test": "Liver weight after oral dosing of MX-6054 +/- T-1095 (Example 5)", "format": "in vivo", "settings": "db/db mice; for liver weight (title: Effects on body and liver weights): oral dosing (title: 35 day), in g (unit assumed)"}, "[5]": {"tested_on": "diabetic rodent models (STZ-induced diabetic rat, yellow KK mice, db/db mice, Zucker Diabetic Fatty rats and GK rats)", "settings": "cited from earlier work"}, "SGLT2 (SAAT1)": {"tested_on": "SGLT2 (SAAT1)", "settings": "Kidney (S3), cited from earlier work; for Km: for D-glucose"}, "SGLT1": {"target": "T1, SGLT1 (Homo sapiens, UniProt P13866)", "T1 sequence (P13866 1-664)": "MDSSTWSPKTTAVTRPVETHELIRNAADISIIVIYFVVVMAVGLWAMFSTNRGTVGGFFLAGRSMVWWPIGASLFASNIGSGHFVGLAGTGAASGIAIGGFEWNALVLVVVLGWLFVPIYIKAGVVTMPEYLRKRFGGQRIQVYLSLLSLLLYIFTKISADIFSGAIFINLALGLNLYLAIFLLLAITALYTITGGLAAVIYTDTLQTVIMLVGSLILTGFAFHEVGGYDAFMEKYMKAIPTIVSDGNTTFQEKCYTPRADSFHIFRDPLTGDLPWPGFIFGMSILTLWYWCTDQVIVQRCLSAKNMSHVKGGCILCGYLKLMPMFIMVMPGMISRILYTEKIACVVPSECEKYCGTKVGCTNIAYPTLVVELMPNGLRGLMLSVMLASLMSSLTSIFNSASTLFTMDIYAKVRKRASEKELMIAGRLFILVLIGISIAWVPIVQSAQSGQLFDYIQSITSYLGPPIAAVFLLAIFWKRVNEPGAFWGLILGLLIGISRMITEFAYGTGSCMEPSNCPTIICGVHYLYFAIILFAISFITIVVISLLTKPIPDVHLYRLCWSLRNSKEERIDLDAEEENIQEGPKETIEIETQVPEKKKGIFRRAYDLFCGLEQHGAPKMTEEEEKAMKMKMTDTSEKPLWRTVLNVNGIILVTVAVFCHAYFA", "settings": "Kidney (S1, S3), cited from earlier work; for Km: for D-glucose"}, "SGLT-2 in the kidney": {"target": "T2, SGLT-2 in the kidney (Homo sapiens, UniProt P31639)", "T2 sequence (P31639 1-672)": "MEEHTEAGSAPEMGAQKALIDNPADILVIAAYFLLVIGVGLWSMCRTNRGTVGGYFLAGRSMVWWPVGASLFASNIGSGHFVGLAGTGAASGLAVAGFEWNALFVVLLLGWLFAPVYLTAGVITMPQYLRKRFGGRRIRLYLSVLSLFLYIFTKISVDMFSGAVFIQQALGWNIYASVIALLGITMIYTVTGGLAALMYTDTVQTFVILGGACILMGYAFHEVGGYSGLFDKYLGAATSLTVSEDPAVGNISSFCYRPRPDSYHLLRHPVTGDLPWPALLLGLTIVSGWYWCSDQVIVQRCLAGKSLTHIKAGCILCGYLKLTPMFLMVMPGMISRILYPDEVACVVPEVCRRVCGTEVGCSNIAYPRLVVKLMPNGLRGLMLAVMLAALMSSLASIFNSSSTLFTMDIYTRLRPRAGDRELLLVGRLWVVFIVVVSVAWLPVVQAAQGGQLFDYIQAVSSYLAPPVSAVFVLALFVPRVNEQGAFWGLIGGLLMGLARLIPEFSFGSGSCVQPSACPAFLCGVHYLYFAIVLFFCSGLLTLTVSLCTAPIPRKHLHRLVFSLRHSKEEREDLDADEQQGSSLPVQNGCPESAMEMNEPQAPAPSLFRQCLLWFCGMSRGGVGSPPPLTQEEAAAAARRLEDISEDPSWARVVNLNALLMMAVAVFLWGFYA", "settings": "compared with T-1095; cited from earlier work"}, "SGLT in the kidney": {"tested_on": "SGLT in the kidney", "settings": "cited from earlier work"}, "[6]": {"tested_on": "renal tubular glucose reabsorption", "settings": "subcutaneous daily administration; cited from earlier work"}, "[7]": {"tested_on": "Na^+-glucose co-transporters located in chorionic membrane of the intestine and the kidney", "settings": "cited from earlier work"}, "[8]": {"settings": "0.1 mpk MX-6054, 11 day oral dosing"}, "[9]": {"settings": "0.3 mpk MX-6054, 11 day oral dosing"}, "[10]": {"settings": "1 mpk MX-6054, 11 day oral dosing"}, "[11]": {"settings": "3 mpk MX-6054, 11 day oral dosing"}, "[12]": {"settings": "10 mpk MX-6054, 11 day oral dosing"}, "[13]": {"settings": "100 mpk T-1095, 11 day oral dosing"}}, "note": "Read-outs that look alike come from different tables or passages of the source.", "data": [{"compound": "Cc1cc2c(cc1-c1cc(/C=C3\\SC(=O)NC3=O)ccc1OC(F)(F)F)C(C)(C)CCC2(C)C", "note": "[MX-6054, 2,4-thiazolidinedione, 5-[[3-(5,6,7,8-tetrahydro-3,5,5,8,8-pentamethyl-2-naphthalenyl)-4-(trifluoromethoxy)phenyl]methylene]-, (5Z)-]", "values": [{"measurement": "Triglycerides", "setting": "db/db mice [1]; [8]", "value": "260 ± 24", "unit": "mg/dL"}, {"measurement": "Triglycerides", "setting": "db/db mice [1]; [9]", "value": "262 ± 25", "unit": "mg/dL"}, {"measurement": "Triglycerides", "setting": "db/db mice [1]; [10]", "value": "259 ± 28", "unit": "mg/dL"}, {"measurement": "Triglycerides", "setting": "db/db mice [1]; [11]", "value": "206 ± 24", "unit": "mg/dL"}, {"measurement": "Triglycerides", "setting": "db/db mice [1]; [12]", "value": "189 ± 11", "unit": "mg/dL"}, {"measurement": "Glucose", "setting": "db/db mice [2]; [8]", "value": "357 ± 46", "unit": "mg/dL"}, {"measurement": "Glucose", "setting": "db/db mice [2]; [9]", "value": "342 ± 41", "unit": "mg/dL"}, {"measurement": "Glucose", "setting": "db/db mice [2]; [10]", "value": "406 ± 57", "unit": "mg/dL"}, {"measurement": "Glucose", "setting": "db/db mice [2]; [11]", "value": "255 ± 42", "unit": "mg/dL"}, {"measurement": "Glucose", "setting": "db/db mice [2]; [12]", "value": "224 ± 13", "unit": "mg/dL"}, {"measurement": "body weight (title: Effects on body and liver weights)", "setting": "[3]; 0.1 mpk MX-6054", "value": "−0.7 ± 0.7"}, {"measurement": "body weight (title: Effects on body and liver weights)", "setting": "[3]; 0.3 mpk MX-6054", "value": "0.2 ± 0.4"}, {"measurement": "body weight (title: Effects on body and liver weights)", "setting": "[3]; 1 mpk MX-6054", "value": "0.6 ± 0.6"}, {"measurement": "body weight (title: Effects on body and liver weights)", "setting": "[3]; 3 mpk MX-6054", "value": "−0.8 ± 1.3"}, {"measurement": "body weight (title: Effects on body and liver weights)", "setting": "[3]; 10 mpk MX-6054", "value": "2.5 ± 1.1"}, {"measurement": "liver weight (title: Effects on body and liver weights)", "setting": "[4]; 0.1 mpk MX-6054", "value": "1.76 ± 0.11"}, {"measurement": "liver weight (title: Effects on body and liver weights)", "setting": "[4]; 0.3 mpk MX-6054", "value": "1.93 ± 0.09"}, {"measurement": "liver weight (title: Effects on body and liver weights)", "setting": "[4]; 1 mpk MX-6054", "value": "1.98 ± 0.09"}, {"measurement": "liver weight (title: Effects on body and liver weights)", "setting": "[4]; 3 mpk MX-6054", "value": "1.89 ± 0.09"}, {"measurement": "liver weight (title: Effects on body and liver weights)", "setting": "[4]; 10 mpk MX-6054", "value": "2.38 ± 0.16"}, {"measurement": "liver weight, effect of treatment in words", "setting": "[4]; treatment with MX-6054", "value": "significant increase"}]}, {"compound": "COC(=O)OCC1OC(Oc2cc(C)cc(O)c2C(=O)CCc2ccc3occc3c2)C(O)C(O)C1O", "note": "(centres unmarked) [T-1095]", "values": [{"measurement": "Triglycerides", "setting": "db/db mice [1]; [13]", "value": "196 ± 11", "unit": "mg/dL"}, {"measurement": "Glucose", "setting": "db/db mice [2]; [13]", "value": "201 ± 9", "unit": "mg/dL"}, {"measurement": "body weight (title: Effects on body and liver weights)", "setting": "[3]; 100 mpk T-1095", "value": "0.7 ± 0.3"}, {"measurement": "adding weight, infection in the urinary tracts, electrolyte imbalance in plasma, changes in food intake, acute hypoglycemic shock, pathological changes in the kidney", "setting": "[5]; during treatment with T-1095", "value": "no observed sign"}, {"measurement": "oral glucose tolerance test and hyperinsulinemic euglycemic clamp studies", "setting": "[5]; in vivo, po", "value": "improvement of glucose tolerance and the reduction of insulin resistance"}, {"measurement": "elevated blood glucose levels", "setting": "[5]; oral administration, rodent models of IDDM and NIDDM", "value": "suppress elevated blood glucose levels"}, {"measurement": "fed and fasting blood glucose levels and HbA1c", "setting": "[5]; treatment for 3 weeks to 6 months, diabetic rodent models", "value": "reduced"}, {"measurement": "hyperinsulinemia, hypertriglyceridemia, and the development of microalbuminuria", "setting": "[5]; yellow KK mice and other diabetic mice models", "value": "decrease"}, {"measurement": "liver weight (title: Effects on body and liver weights)", "setting": "[4]; 100 mpk T-1095", "value": "1.64 ± 0.07"}, {"measurement": "MX-6054-induced increase in liver weight", "setting": "[4]; co-administration of T-1095 with MX-6054", "value": "prevented"}]}, {"compound": "O=C[C@H](O)[C@@H](O)[C@H](O)[C@H](O)CO", "note": "[D-glucose]", "values": [{"measurement": "Km", "setting": "SGLT2 (SAAT1); read-out: Km In vivo", "value": 6000, "unit": "µM"}, {"measurement": "Km", "setting": "SGLT2 (SAAT1); read-out: Km in vitro", "value": 1640, "unit": "µM"}, {"measurement": "TmG in vitro (Maximal transport rate)", "setting": "SGLT2 (SAAT1)", "value": 83, "unit": "pmol/min/mm"}, {"measurement": "Km", "setting": "SGLT1; read-out: Km In vivo", "value": 300, "unit": "µM"}, {"measurement": "Km", "setting": "SGLT1; read-out: Km in vitro", "value": 390, "unit": "µM"}, {"measurement": "TmG in vitro (Maximal transport rate)", "setting": "SGLT1", "value": 7.9, "unit": "pmol/min/mm"}]}, {"compound": "Cc1cc(O)c(C(=O)CCc2ccc3occc3c2)c(OC2OC(CO)C(O)C(O)C2O)c1", "note": "(centres unmarked) [T-1095A]", "values": [{"measurement": "substrate for the inhibition of SGLT-2 in the kidney", "setting": "SGLT-2 in the kidney", "value": "better substrate"}, {"measurement": "inhibition of SGLT in the kidney", "setting": "SGLT in the kidney", "value": "selective and potent inhibitor"}]}, {"compound": "O=C(CCc1ccc(O)cc1)c1c(O)cc(O)cc1O[C@@H]1O[C@H](CO)[C@@H](O)[C@H](O)[C@H]1O", "note": "[phlorizin]", "values": [{"measurement": "glucose level in a plasma", "setting": "[6]", "value": "controlled at a normal level for a long time"}, {"measurement": "Na^+-glucose co-transporter activity", "setting": "[7]", "value": "inhibits"}]}]}
